From BindingDB's records for doi:10.1016/s0960-894x(01)00493-0 (National Cancer Institute-Frederick, 2001)
pKi: −log10 of the molar value.

Biological target: Urokinase-type plasminogen activator (Homo sapiens) (UniProt P00749)
Assay: Compound was tested for microPa) Urokinase-type plasminogen activator from human urine

## CC[C@H](C)[C@@H]1NC(=O)[C@@H]2CCCN2C(=O)[C@@H]2CCCN2C(=O)[C@H]([C@@H](C)CC)NC(=O)[C@H](CO)NC(=O)[C@H](CCCCN)NC(=O)[C@H]([C@@H](C)O)NC(=O)[C@@H]2CSSC[C@H](NC1=O)C(=O)N[C@@H](Cc1ccccc1)C(=O)N1CCC[C@H]1C(=O)N[C@@H](CC(=O)O)C(=O)NCC(=O)N[C@@H](CCCNC(=N)N)C(=O)N2
  pKi: 3.30
